Reference: patent publication US8889679B2, “Glutaraldehyde based biocidal compositions and methods of use” (Dow Global Technologies LLC, priority 2009, dated 2014)

Key:
[1] = tested on: oil field isolated anaerobic SRB consortium; test: Biocidal efficacy against anaerobic bacteria: minimum biocide concentration for complete bacteria kill (MBC), 40° C., 24 hour; type: cell-based, anaerobic sulfate-reducing bacteria (SRB); conditions: for MBC (active ppm) Glutaraldehyde: glutaraldehyde concentration alone or in combination
Experimental: (§1) The synergy indexes reported in the following examples are calculated using the following equation: Synergy Index=Ca/CA+Cb/CB
(§2) where Ca: Concentration of biocide A required to achieve a certain level or complete bacterial kill when used in combination;
(§3) CA: Concentration of biocide A required to achieve a certain level or complete bacterial kill when used alone;
(§4) Cb: Concentration of biocide B required to achieve a certain level or complete bacterial kill when used in combination; and
(§5) CB: Concentration of biocide B required to achieve a certain level or complete bacterial kill when used alone.
(§6) A synergy index (SI) of 1 indicates additivity, a synergy index of less than 1 indicates synergy, and a synergy index greater than 1 indicates antagonism.
(§7) Various methods known to those skilled in the art can be used for evaluating biocidal efficacy. In the examples below, aliquots of the biocide-treated samples are removed at predetermined time points and the biocide concentration required to achieve a certain level or complete bacterial kill is determined by culture-based methods including serial dilution. In some examples, the method is based or adapted (e.g., for high temperature testing or for the presence of sulfide) from the methodology described in international patent publication WO 2009/039004, which is incorporated herein by reference.
Inside an anaerobic chamber, a deaerated sterile salt solution (3.1183 g of NaCl, 1.3082 mg of NaHCO3, 47.70 mg of KCl, 72.00 mg of CaCl2, 54.49 mg of MgSO4, 172.28 mg of Na2SO4, 43.92 mg of Na2CO3 in 1 L water) is contaminated with an oil field isolated anaerobic SRB consortium at final bacterial concentrations of 10^5-10^6 CFU/mL. Aliquots of this contaminated water are then treated with biocide solution (single or in combination) at various concentrations.

[2] = tested on: oil field isolated anaerobic SRB consortium; test: Biocidal efficacy against anaerobic bacteria for high temperature and sulfide-rich conditions: lowest concentration for 99.9% bacterial reduction in 2 hours; type: cell-based, anaerobic sulfate-reducing bacteria (SRB); conditions: 80° C., 10 ppm sulfide ion; for Dosage required for 99.9% bacterial kill in 2 h (active ppm) Glutaraldehyde: glutaraldehyde concentration alone or in combination
Experimental: as §1, §2, §3, §4, §5, §6, §7
Inside an anaerobic chamber, biocide solutions (single or in combination) are prepared at various concentrations in a salt solution (3.1183 g of NaCl, 1.3082 mg of NaHCO3, 47.70 mg of KCl, 72.00 mg of CaCl2, 54.49 mg of MgSO4, 172.28 mg of Na2SO4, 43.92 mg of Na2CO3 in 1 L water). The biocide solutions are challenged with 10^4 to 10^5 CFU/mL of an oil field isolated anaerobic SRB consortium and 10 ppm sulfide ion. The mixtures are incubated at 80° C. under anaerobic conditions for 2 hours after which the biocidal efficacy against the field SRB consortium is evaluated. The biocidal efficacy is determined by selecting the lowest biocide concentration required to achieve at least a 99.9% bacterial reduction in 2 hours. Synergy index is then calculated.

[3] = glutaraldehyde/CTAC series, CTAC concentration alone or in combination
[4] = glutaraldehyde/HHT series, HHT concentration alone or in combination
[5] = glutaraldehyde/tris nitro series
[6] = glutaraldehyde/tris nitro series, tris nitro concentration alone or in combination

Structure (SMILES): ClC=CC[N+]12CN3CN(CN(C3)C1)C2 [CTAC, 1-(3-chloroallyl)-3,5,7-triaza-1-azoniaadamantane]
- MBC (active ppm) CTAC [1, 3]: 133.3 active ppm
- Dosage required for 99.9% bacterial kill in 2 h (active ppm) CTAC [2, 3]: 375.0 active ppm

Structure (SMILES): OCCN1CN(CCO)CN(CCO)C1 [HHT, hexahydro-1,3,5-tris(2-hydroxyethyl)-s-triazine]
- MBC (active ppm) HHT [1, 4]: 133.3 active ppm
- Dosage required for 99.9% bacterial kill in 2 h (active ppm) HHT [2, 4]: 125.0 active ppm

Structure (SMILES): O=CCCCC=O [glutaraldehyde]
- MBC (active ppm) Glutaraldehyde ([1]; glutaraldehyde/CTAC series): 5.3 active ppm
- MBC (active ppm) Glutaraldehyde ([1]; glutaraldehyde/HHT series): 4.0 active ppm
- MBC (active ppm) Glutaraldehyde [1, 5]: 4.0 active ppm
- Dosage required for 99.9% bacterial kill in 2 h (active ppm) Glutaraldehyde ([2]; glutaraldehyde/CTAC series): 8.7 active ppm
- Dosage required for 99.9% bacterial kill in 2 h (active ppm) Glutaraldehyde ([2]; glutaraldehyde/HHT series): 15.6 active ppm
- Dosage required for 99.9% bacterial kill in 2 h (active ppm) Glutaraldehyde [2, 5]: 22.5 active ppm

Structure (SMILES): O=[N+]([O-])C(CO)(CO)CO [tris nitro, tris(hydroxymethyl)nitromethane]
- MBC (active ppm) Tris Nitro [1, 6]: 44.4 active ppm
- Dosage required for 99.9% bacterial kill in 2 h (active ppm) Tris Nitro [2, 6]: 180.0 active ppm
